In patent US7635572B2, “Methods for conducting assays for enzyme activity on protein microarrays” (Life Technologies Corporation, priority 2004, dated 2009):

Assays:
[1] = target: T1, plurality of kinases (Table 5) (Homo sapiens, UniProt Q9UQB9); assay: Further analysis of a plurality of inhibitors and a plurality of kinases on microarray (Example IX, Table 5); format: biochemical; settings: plate G11; inhibitor 100 uM;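 also: inhibition of each kinase by the inhibitors is given as a qualitative level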;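 as to Inhibition level, FYN: level 0 no or unclear inhibition to Level 2 substantial inhibition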;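 as to Inhibition level, Homo sapiens in: level 0 none or unclear Level 1 marginal Level 2 substantial inhibition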;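 as to Inhibition level, Homo sapiens, o: level 0 none or unclear Level 1 marginal Level 2 substantial inhibition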;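 as to Inhibition level, MAP2K4: level 0 none or unclear Level 1 marginal Level 2 substantial inhibition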;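 as to Inhibition level, PIM1: level 0 no or unclear inhibition to Level 2 substantial inhibition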;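 as to Inhibition level, STK13: level 0 no or unclear inhibition to Level 2 substantial inhibition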;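 as to Inhibition level, STK4: level 0 no or unclear inhibition to Level 2 substantial inhibition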
T1 sequence (Q9UQB9 1-309): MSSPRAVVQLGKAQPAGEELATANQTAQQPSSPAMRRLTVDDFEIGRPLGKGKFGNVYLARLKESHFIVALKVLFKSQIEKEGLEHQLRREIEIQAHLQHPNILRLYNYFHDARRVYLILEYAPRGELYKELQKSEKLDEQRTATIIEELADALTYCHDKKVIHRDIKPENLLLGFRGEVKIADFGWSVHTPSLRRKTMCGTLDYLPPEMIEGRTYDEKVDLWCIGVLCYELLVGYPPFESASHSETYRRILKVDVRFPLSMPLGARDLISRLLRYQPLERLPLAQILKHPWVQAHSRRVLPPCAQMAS

[2] = target: T2, plurality of kinases (Table 5) (Homo sapiens, UniProt Q13043); assay: as above; format: biochemical; settings: plate D6
T2 sequence (Q13043 1-487): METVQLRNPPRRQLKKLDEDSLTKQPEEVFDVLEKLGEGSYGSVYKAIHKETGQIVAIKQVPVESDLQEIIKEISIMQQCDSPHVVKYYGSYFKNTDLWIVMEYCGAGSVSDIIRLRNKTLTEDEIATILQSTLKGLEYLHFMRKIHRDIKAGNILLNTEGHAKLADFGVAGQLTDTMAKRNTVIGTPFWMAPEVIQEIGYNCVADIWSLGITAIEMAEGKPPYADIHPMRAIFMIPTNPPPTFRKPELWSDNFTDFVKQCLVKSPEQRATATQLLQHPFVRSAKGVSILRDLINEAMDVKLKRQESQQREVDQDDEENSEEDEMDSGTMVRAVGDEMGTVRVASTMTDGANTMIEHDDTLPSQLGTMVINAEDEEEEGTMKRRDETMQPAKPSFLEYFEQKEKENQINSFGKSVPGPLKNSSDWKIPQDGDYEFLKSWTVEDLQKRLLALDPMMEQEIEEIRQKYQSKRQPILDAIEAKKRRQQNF

[3] = target: plurality of kinases (Table 5) (Homo sapiens, UniProt P24723); assay: as above; format: biochemical; settings: plate B3
Chain of plurality of kinases (Table 5) (Homo sapiens, UniProt P24723) (P24723 whole entry): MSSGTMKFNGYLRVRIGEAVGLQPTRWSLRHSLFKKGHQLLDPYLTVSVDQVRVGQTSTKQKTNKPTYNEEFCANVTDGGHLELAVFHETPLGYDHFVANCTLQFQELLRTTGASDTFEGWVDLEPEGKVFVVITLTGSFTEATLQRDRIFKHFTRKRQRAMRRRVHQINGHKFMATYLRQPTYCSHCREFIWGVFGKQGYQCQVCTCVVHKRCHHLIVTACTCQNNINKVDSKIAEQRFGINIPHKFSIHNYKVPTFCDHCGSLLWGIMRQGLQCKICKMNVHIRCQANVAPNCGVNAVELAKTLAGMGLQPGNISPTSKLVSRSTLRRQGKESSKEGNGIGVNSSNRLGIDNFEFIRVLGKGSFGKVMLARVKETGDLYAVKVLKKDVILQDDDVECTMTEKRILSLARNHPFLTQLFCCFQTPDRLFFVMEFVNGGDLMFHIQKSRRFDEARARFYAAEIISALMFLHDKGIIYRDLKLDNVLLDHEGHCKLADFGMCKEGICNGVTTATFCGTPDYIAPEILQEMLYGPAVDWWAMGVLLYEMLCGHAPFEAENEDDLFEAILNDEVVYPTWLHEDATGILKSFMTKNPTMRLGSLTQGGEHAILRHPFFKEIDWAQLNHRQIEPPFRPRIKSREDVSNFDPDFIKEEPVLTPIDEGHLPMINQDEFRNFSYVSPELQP

[4] = target: T3, plurality of kinases (Table 5) (Homo sapiens, UniProt P45985); assay: as above; format: biochemical; settings: plate E6
T3 sequence (P45985 1-399): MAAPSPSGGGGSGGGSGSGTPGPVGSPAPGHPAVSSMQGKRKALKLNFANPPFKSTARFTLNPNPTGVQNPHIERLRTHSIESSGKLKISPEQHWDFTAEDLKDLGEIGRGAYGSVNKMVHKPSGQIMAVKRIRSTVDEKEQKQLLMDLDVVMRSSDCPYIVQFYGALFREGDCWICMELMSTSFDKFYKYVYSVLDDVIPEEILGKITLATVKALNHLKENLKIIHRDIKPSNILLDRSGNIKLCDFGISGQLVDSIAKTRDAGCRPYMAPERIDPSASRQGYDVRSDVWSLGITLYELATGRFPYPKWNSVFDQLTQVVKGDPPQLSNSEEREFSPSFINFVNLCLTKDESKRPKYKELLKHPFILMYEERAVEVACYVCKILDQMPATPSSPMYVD

[5] = target: plurality of kinases (Table 5) (Homo sapiens, UniProt P16591); assay: as above; format: biochemical; settings: plate H5; inhibitor 100 uM
Chain of plurality of kinases (Table 5) (Homo sapiens, UniProt P16591) (P16591 whole entry): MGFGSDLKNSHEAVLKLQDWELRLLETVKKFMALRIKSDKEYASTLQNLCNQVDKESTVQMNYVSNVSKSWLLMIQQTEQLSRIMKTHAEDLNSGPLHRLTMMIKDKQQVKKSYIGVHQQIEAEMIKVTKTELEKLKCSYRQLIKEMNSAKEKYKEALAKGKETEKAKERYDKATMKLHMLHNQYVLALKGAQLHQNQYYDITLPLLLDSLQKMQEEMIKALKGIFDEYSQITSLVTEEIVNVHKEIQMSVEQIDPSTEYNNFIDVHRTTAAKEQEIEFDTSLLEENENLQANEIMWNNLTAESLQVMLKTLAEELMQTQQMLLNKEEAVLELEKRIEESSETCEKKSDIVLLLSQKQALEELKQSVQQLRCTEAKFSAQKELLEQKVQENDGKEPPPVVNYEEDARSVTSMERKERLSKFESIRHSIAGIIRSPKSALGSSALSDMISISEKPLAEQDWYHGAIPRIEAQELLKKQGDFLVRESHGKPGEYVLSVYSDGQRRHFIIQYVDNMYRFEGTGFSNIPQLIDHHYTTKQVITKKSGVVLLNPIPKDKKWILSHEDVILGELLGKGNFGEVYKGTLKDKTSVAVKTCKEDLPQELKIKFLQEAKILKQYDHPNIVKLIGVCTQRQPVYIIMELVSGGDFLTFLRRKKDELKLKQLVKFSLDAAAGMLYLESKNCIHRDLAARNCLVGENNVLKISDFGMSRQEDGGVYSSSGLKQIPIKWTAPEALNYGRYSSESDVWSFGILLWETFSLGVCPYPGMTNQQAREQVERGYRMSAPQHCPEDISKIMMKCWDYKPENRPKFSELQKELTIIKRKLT

[6] = target: plurality of kinases (Table 5) (Homo sapiens, UniProt Q9Y6E0); assay: as above; format: biochemical; settings: plate F11; inhibitor 100 uM
Chain of plurality of kinases (Table 5) (Homo sapiens, UniProt Q9Y6E0) (Q9Y6E0 whole entry): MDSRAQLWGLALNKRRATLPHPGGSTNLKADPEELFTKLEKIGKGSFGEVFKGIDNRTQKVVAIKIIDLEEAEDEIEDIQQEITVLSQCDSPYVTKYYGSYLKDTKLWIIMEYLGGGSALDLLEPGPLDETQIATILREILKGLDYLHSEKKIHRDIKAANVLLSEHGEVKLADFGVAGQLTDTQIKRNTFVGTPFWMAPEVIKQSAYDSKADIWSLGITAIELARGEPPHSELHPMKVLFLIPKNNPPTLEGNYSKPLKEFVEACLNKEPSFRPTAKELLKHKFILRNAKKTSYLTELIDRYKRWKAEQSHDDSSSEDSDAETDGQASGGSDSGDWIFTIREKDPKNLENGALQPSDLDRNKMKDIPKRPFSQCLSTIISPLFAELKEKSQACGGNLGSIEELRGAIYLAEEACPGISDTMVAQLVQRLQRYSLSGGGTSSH

[7] = target: plurality of kinases (Table 5) (Homo sapiens, UniProt Q05655); assay: as above; format: biochemical; settings: plate B2
Chain of plurality of kinases (Table 5) (Homo sapiens, UniProt Q05655) (Q05655 whole entry): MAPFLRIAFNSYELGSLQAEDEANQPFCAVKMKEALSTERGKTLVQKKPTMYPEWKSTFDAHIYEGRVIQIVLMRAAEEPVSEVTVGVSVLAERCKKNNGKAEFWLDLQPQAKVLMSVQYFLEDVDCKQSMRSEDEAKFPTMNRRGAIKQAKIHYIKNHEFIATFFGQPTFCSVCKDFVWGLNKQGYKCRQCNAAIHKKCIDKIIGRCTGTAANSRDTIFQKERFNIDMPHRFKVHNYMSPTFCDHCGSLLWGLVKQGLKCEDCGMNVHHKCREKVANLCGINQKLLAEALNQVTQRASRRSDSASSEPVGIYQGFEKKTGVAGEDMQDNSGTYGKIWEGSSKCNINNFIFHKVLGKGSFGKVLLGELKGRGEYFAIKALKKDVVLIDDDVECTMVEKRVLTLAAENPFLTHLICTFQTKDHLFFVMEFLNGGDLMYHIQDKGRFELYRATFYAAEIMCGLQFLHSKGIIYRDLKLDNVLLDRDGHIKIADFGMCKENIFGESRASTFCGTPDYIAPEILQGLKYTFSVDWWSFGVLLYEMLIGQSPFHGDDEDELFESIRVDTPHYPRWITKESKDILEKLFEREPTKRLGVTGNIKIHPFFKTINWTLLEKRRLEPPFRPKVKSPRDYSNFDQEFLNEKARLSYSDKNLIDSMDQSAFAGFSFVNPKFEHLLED

[8] = target: plurality of kinases (Table 5) (Homo sapiens, UniProt P06241); assay: as above; format: biochemical; settings: plate A4, Domain 0
Chain of plurality of kinases (Table 5) (Homo sapiens, UniProt P06241) (P06241 whole entry): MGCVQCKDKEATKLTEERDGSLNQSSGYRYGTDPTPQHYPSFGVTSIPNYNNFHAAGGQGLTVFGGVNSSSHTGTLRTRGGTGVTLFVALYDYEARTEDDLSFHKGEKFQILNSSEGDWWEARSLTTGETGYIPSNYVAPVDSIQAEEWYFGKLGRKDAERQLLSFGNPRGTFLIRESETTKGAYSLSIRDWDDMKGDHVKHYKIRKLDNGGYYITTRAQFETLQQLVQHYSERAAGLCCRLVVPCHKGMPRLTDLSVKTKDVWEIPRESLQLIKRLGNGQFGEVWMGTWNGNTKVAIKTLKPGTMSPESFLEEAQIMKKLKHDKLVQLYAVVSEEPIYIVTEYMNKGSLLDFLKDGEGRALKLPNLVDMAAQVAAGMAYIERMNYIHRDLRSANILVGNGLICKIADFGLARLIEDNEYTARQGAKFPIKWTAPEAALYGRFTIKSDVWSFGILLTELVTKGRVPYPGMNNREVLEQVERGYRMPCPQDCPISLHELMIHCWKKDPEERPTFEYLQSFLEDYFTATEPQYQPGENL

[9] = system: plurality of kinases (Table 5); assay: as above; format: biochemical; settings: for Inhibition level, Homo sapiens c: plate F4; for Inhibition level, Homo sapiens, o: plate F5; for Inhibition level, Homo sapiens, B: plate F7; for Inhibition level, Homo sapiens in: plate F9; for Inhibition level, Homo sapiens p: plate F10
[10] = target: plurality of kinases (Table 5) (Homo sapiens, UniProt O75716); assay: as above; format: biochemical; settings: plate C3
Chain of plurality of kinases (Table 5) (Homo sapiens, UniProt O75716) (O75716 whole entry): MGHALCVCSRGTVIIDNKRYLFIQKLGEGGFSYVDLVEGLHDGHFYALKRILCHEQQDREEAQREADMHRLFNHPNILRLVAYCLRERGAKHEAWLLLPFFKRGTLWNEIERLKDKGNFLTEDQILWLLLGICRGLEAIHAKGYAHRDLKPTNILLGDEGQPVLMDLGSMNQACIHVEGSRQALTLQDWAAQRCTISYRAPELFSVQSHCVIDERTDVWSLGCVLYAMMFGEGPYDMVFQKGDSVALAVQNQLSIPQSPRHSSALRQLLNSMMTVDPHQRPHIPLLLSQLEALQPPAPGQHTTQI

[11] = target: plurality of kinases (Table 5) (Homo sapiens, UniProt Q7KZI7); assay: as above; format: biochemical; settings: plate C4; inhibitor 100 uM
[12] = target: plurality of kinases (Table 5) (Homo sapiens, UniProt P09769); assay: as above; format: biochemical; settings: plate B10
Chain of plurality of kinases (Table 5) (Homo sapiens, UniProt P09769) (P09769 whole entry): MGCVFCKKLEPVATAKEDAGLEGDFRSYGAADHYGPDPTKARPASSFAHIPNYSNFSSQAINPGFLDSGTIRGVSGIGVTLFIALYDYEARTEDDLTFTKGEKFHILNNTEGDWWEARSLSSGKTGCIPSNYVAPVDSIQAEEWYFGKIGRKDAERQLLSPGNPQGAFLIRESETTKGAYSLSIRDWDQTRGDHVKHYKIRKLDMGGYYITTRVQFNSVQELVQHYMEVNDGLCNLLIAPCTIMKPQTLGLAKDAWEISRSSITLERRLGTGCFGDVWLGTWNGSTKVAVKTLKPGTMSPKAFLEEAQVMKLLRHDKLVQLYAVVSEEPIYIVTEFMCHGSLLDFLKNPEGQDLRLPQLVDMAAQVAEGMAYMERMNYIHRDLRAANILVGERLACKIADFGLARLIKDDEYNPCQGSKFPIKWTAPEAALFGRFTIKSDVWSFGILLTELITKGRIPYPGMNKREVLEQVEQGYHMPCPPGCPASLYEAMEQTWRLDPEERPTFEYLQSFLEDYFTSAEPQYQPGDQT

[13] = target: plurality of kinases (Table 5) (Homo sapiens, UniProt P11309); assay: as above; format: biochemical; settings: plate C2
Chain of plurality of kinases (Table 5) (Homo sapiens, UniProt P11309) (P11309 whole entry): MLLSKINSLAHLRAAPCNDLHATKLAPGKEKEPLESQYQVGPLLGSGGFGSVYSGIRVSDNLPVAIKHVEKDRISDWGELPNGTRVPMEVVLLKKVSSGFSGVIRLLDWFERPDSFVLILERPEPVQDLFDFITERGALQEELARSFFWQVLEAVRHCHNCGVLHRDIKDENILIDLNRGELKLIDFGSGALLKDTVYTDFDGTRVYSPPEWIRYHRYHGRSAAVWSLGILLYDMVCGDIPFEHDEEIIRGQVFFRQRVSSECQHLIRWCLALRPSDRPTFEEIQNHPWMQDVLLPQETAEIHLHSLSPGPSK

[14] = system: 39 kinases (Table 4); settings: known general specificities of the inhibitors, Table 3; cited from earlier work

Structure (SMILES)	Inhibition level, STK13 [1]	Inhibition level, STK4 ([2]; inhibitor 100 uM)	Inhibition level, PRKCH ([3]; inhibitor 100 uM)	Inhibition level, MAP2K4 ([4]; inhibitor 100 uM)	Inhibition level, FER [5]	Inhibition level, STK24 [6]	Inhibition level, PRKCD ([7]; inhibitor 100 uM)	Inhibition level, FYN ([8]; inhibitor 100 uM)	Inhibition level, Homo sapiens, S ([9]; plate E9, inhibitor 100 uM)	Inhibition level, Homo sapiens, s ([9]; plate E11, inhibitor 100 uM)	Inhibition level, Homo sapiens, s ([9]; plate F3, inhibitor 100 uM)	Inhibition level, Homo sapiens c ([9]; inhibitor 100 uM)	Inhibition level, Homo sapiens, o ([9]; inhibitor 100 uM)	Inhibition level, Homo sapiens, S ([9]; plate F6, inhibitor 100 uM)	Inhibition level, Homo sapiens, B ([9]; inhibitor 100 uM)	Inhibition level, Homo sapiens, s ([9]; plate F8, inhibitor 100 uM)	Inhibition level, Homo sapiens in ([9]; inhibitor 100 uM)	Inhibition level, Homo sapiens p ([9]; inhibitor 100 uM)	Inhibition level, STK16 ([10]; inhibitor 100 uM)	Inhibition level, MARK2 [11]	also measured
O=S(=O)(NCCNC/C=C/c1ccc(Br)cc1)c1cccc2cnccc12 [H-89]	1	2	2	1	2	2	1	2	2	1	2	2	1	2	0	1	2	2	2	2	Inhibition level, FGR ([12]; inhibitor 100 uM): 2; Inhibition level, PIM1 ([13]; inhibitor 100 uM): 2; General Specificity (known) [14]: serine/threonine
N#C/C(=C/c1ccc(O)c(O)c1)C(=O)NCc1ccccc1 [AG 490]	2	0	2	0	2	2	0	2	0	2	0	2	2	0	2	0	1	2	0	2	Inhibition level, FGR ([12]; inhibitor 100 uM): 2; Inhibition level, PIM1 ([13]; inhibitor 100 uM): 2; General Specificity (known) [14]: tyrosine
Cn1cc(C2=C(c3cn(CCCSC(=N)N)c4ccccc34)C(=O)NC2=O)c2ccccc21 [Ro-31-8220]	2	2	2	1	2	2	0	2	0	2	2	2	2	2	0	0	0	2	1	2	Inhibition level, STK4 ([2]; Ro-31-8220, conc. not given): 0; Inhibition level, PRKCH ([3]; Ro-31-8220, conc. not given): 2; Inhibition level, MAP2K4 ([4]; Ro-31-8220 90 uM): 0; Inhibition level, PRKCD ([7]; Ro-31-8220, conc. not given): 2; Inhibition level, FYN ([8]; Ro-31-8220 90 uM): 0; Inhibition level, Homo sapiens, s ([9]; plate F3, Ro-31-8220, conc. not given): 2; Inhibition level, Homo sapiens, o ([9]; Ro-31-8220, conc. not given): 0; Inhibition level, Homo sapiens, S ([9]; plate F6, Ro-31-8220, conc. not given): 0; Inhibition level, Homo sapiens, B ([9]; Ro-31-8220, conc. not given): 2; Inhibition level, Homo sapiens, s ([9]; plate F8, Ro-31-8220, conc. not given): 2; Inhibition level, Homo sapiens in ([9]; Ro-31-8220, conc. not given): 2; Inhibition level, Homo sapiens p ([9]; Ro-31-8220, conc. not given): 2; Inhibition level, STK16 ([10]; Ro-31-8220 90 uM): 2; Inhibition level, FGR ([12]; Ro-31-8220, conc. not given): 2; Inhibition level, FGR ([12]; inhibitor 100 uM): 2; Inhibition level, PIM1 ([13]; Ro-31-8220 90 uM): 2; Inhibition level, PIM1 ([13]; inhibitor 100 uM): 0; General Specificity (known) [14]: serine/threonine
